According to patent publication US10947213B1 (Merck Patent GmbH, priority 2015, dated 2021):
Counter-ions that a name gives are not always drawn.

Target: T1, TLR7/NFKb HEK cells (Homo sapiens, UniProt Q9NYK1)
T1 construct: expressed in transfected cells; host or cells: HEK cells (TLR7/NFKb reporter line)
T1 sequence (Q9NYK1 27-1049): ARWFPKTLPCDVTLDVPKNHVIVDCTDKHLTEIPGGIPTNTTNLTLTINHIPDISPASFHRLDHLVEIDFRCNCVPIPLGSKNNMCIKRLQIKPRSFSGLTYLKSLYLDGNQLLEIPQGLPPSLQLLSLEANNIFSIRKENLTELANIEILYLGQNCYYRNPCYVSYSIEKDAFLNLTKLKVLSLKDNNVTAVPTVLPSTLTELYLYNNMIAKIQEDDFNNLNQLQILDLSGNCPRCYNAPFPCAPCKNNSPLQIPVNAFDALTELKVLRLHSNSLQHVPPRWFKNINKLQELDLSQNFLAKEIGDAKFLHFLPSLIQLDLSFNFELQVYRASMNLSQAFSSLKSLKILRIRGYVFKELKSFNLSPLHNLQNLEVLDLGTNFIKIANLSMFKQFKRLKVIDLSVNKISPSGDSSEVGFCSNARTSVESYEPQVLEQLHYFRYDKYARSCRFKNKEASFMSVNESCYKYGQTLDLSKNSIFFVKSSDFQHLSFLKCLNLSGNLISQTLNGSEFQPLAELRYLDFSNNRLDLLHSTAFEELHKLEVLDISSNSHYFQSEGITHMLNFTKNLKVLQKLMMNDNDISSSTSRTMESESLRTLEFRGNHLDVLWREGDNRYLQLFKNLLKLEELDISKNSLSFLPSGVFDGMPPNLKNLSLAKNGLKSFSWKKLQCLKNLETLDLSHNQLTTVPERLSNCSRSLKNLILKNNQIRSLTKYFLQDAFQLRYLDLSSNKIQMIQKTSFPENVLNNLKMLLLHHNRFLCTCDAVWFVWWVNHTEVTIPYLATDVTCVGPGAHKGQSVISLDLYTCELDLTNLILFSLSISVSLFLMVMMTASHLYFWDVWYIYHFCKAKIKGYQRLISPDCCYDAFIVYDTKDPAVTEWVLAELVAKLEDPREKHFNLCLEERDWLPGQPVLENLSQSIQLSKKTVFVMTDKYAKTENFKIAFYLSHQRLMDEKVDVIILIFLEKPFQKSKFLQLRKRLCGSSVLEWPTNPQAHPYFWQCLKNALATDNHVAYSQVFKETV
Assay: HEK Cell Assay (TLR7/NFKb reporter, Steady-Glo luciferase readout)
Type: cell-based
Conditions: 30 min compound preincubation, then R*48 agonist for 5 hours, read-out: Potency
In short: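 Steady-Glo luminescence after 5 h stimulation with R*48 agonist, following 30 min compound preincubation. Assay run in HEK cells carrying a TLR7/NFKb luciferase reporter, plated at 5000 cells/well and grown 24 h at 37° C (10% CO2) before treatment.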

| SMILES | IC50 |
| --- | --- |
| C[C@H]1C[C@@H](N)CN(c2ccc(C(F)(F)F)c3ncccc23)C1 [Compound 66, (3R,5S)-5-methyl-1-[8-(trifluoromethyl)quinolin-5-yl]piperidin-3-amine] | < 1 µM |
| C[C@H]1C[C@@H](N)CN(c2ccc(C(F)F)c3ncccc23)C1 [Compound 68, (3R,5S)-1-[8-(difluoromethyl)quinolin-5-yl]-5-methylpiperidin-3-amine] | < 1 µM |
| C[C@H]1C[C@@H](N)CN(c2ccc(C(F)(F)F)c3nccnc23)C1 [Compound 77, (3R,5S)-5-methyl-1-[8-(trifluoromethyl)quinoxalin-5-yl]piperidin-3-amine] | < 1 µM |
| C[C@H]1C[C@@H](N)CN(c2ccc(Cl)c3ncccc23)C1 [Compound 78, (3R,5S)-1-(8-chloroquinolin-5-yl)-5-methylpiperidin-3-amine] | < 1 µM |
| CC(O)C(=O)N[C@@H]1C[C@H](C)CN(c2ccc(C(F)F)c3nccnc23)C1 (stereo partly drawn) [Compound 79, N-[(3R,5S)-1-[8-(difluoromethyl)quinoxalin-5-yl]-5-methylpiperidin-3-yl]-2-hydroxypropanamide] | 1 to 10 µM |
| C[C@H]1C[C@@H](NC(=O)CO)CN(c2ccc(C#N)c3nccnc23)C1 [Compound 97, N-[(3R,5S)-1-(8-cyanoquinoxalin-5-yl)-5-methylpiperidin-3-yl]-2-hydroxyacetamide] | < 1 µM |
| CCN(C)[C@H](C)C(=O)N[C@@H]1C[C@H](C)CN(c2ccc(C#N)c3nccnc23)C1 [Compound 98, (2R)—N-[(3R,5S)-1-(8-cyanoquinoxalin-5-yl)-5-methylpiperidin-3-yl]-2-[ethyl(methyl)amino]propanamide] | < 1 µM |
| CCN(C)[C@@H](C)C(=O)N[C@@H]1C[C@H](C)CN(c2ccc(C#N)c3nccnc23)C1 [Compound 99, (2S)—N-[(3R,5S)-1-(8-cyanoquinoxalin-5-yl)-5-methylpiperidin-3-yl]-2-[ethyl(methyl)amino]propanamide] | < 1 µM |
| CCN(C)[C@H](C)C(=O)N[C@@H]1C[C@H](C)CN(c2ccnc3nccnc23)C1 [Compound 100, (2R)-2-[ethyl(methyl)amino]-N-[(3R,5S)-5-methyl-1-[pyrido[2,3-b]pyrazin-8-yl]piperidin-3-yl]propanamide] | 1 to 10 µM |
| CC(C)[C@@H](N)C(=O)N[C@@H]1C[C@H](C)CN(c2ccc(C#N)c3nccnc23)C1 [Compound 102, (2R)-2-amino-N-[(3R,5S)-1-(8-cyanoquinoxalin-5-yl)-5-methylpiperidin-3-yl]-3-methylbutanamide] | < 1 µM |
| C[C@H]1C[C@@H](NC(=O)CN2CCN(C)CC2)CN(c2ccc(C#N)c3nccnc23)C1 [Compound 109, N-[(3R,5S)-1-(8-cyanoquinoxalin-5-yl)-5-methylpiperidin-3-yl]-2-(4-methylpiperazin-1-yl)acetamide] | < 1 µM |
| C[C@H]1C[C@@H](NC(=O)CC(F)(F)F)CN(c2ccc(C#N)c3nccnc23)C1 [Compound 111, N-[(3R,5S)-1-(8-cyanoquinoxalin-5-yl)-5-methylpiperidin-3-yl]-3,3,3-trifluoropropanamide] | < 1 µM |
| C[C@H]1C[C@@H](NC(=O)[C@@H](N)c2ccccc2)CN(c2ccc(C#N)c3nccnc23)C1 [Compound 117, (2S)-2-amino-N-[(3R,5S)-1-(8-cyanoquinoxalin-5-yl)-5-methylpiperidin-3-yl]-2-phenylacetamide] | < 1 µM |
| C[C@H]1C[C@@H](NC(=O)[C@@H](N)Cc2cccnc2)CN(c2ccnc3nccnc23)C1 [Compound 118, (2S)-2-amino-N-[(3R,5S)-5-methyl-1-[pyrido[2,3-b]pyrazin-8-yl]piperidin-3-yl]-3-(pyridin-3-yl)propanamide] | 1 to 10 µM |

Results, then the compound that gave them:

| IC50 | SMILES |
| --- | --- |
| < 1 µM | C[C@@H]1CN(c2ccnc3nccnc23)C[C@H](C(=O)NC2CCN(C)CC2)O1 [Compound 65, (2R,6R)-6-methyl-N-(1-methylpiperidin-4-yl)-4-(pyrido[2,3-b]pyrazin-8-yl)morpholine-2-carboxamide] |
| < 1 µM | COCCN[C@@H]1C[C@H](C)CN(c2ccc(OC)c3nccnc23)C1 [Compound 67, (3R,5S)—N-(2-methoxyethyl)-1-(8-methoxyquinoxalin-5-yl)-5-methylpiperidin-3-amine] |
| < 1 µM | C[C@H]1C[C@@H](N)CN(c2ccc(C#N)c3ncncc23)C1 [Compound 74, 5-((3R,5S)-3-Amino-5-methyl-piperidin-1-yl)-quinazoline-8-carbonitrile] |
| 1 to 10 µM | CC1(C)C[C@@H](N)CN(c2ccnc3nccnc23)C1 [Compound 80, (R)-5,5-dimethyl-1-(pyrido[2,3-b]pyrazin-8-yl)piperidin-3-amine] |
| < 1 µM | C[C@H]1C[C@@H](O)CN(c2ccc(C#N)c3nccnc23)C1 [Compound 81, 8-[(3R,5S)-3-hydroxy-5-methylpiperidin-1-yl]quinoxaline-5-carbonitrile] |
| > 10 µM | CC(C)[C@H](O)C(=O)N[C@@H]1C[C@H](C(F)(F)F)CN(c2ccnc3nccnc23)C1 [Compound 89, (2S)-2-hydroxy-3-methyl-N-[(3R,5S)-1-[pyrido[2,3-b]pyrazin-8-yl]-5-(trifluoromethyl)piperidin-3-yl]butanamide hydrochloride] |
| > 10 µM | CC(C)[C@H](O)C(=O)N[C@H]1C[C@@H](C(F)(F)F)CN(c2ccnc3nccnc23)C1 [Compound 90, (2S)-2-hydroxy-3-methyl-N-[(3S,5R)-1-[pyrido[2,3-b]pyrazin-8-yl]-5-(trifluoromethyl)piperidin-3-yl]butanamide hydrochloride] |
| 1 to 10 µM | CCN(C)[C@@H](C)C(=O)N[C@@H]1C[C@H](C)CN(c2ccnc3nccnc23)C1 [Compound 101, (2S)-2-[ethyl(methyl)amino]-N-[(3R,5S)-5-methyl-1-[pyrido[2,3-b]pyrazin-8-yl]piperidin-3-yl]propanamide] |
| < 1 µM | CC(C)[C@H](N)C(=O)N[C@@H]1C[C@H](C)CN(c2ccc(C#N)c3nccnc23)C1 [Compound 103, (2S)-2-amino-N-[(3R,5S)-1-(8-cyanoquinoxalin-5-yl)-5-methylpiperidin-3-yl]-3-methylbutanamide] |
| > 10 µM | CC(C)[C@@H](N)C(=O)N[C@@H]1C[C@H](C)CN(c2ccnc3nccnc23)C1 [Compound 104, (2R)-2-amino-3-methyl-N-[(3R,5S)-5-methyl-1-[pyrido[2,3-b]pyrazin-8-yl]piperidin-3-yl]butanamide] |
| < 1 µM | CC(C)[C@H](N)C(=O)N[C@@H]1C[C@H](C)CN(c2ccnc3nccnc23)C1 [Compound 105, (2S)-2-amino-3-methyl-N-[(3R,5S)-5-methyl-1-[pyrido[2,3-b]pyrazin-8-yl]piperidin-3-yl]butanamide] |
| < 1 µM | C[C@H]1C[C@@H](NC(=O)[C@H](N)CO)CN(c2ccc(C#N)c3nccnc23)C1 [Compound 106, (2R)-2-amino-N-[(3R,5S)-1-(8-cyanoquinoxalin-5-yl)-5-methylpiperidin-3-yl]-3-hydroxypropanamide] |
| > 10 µM | C[C@H]1C[C@@H](NC(=O)[C@H](N)CO)CN(c2ccnc3nccnc23)C1 [Compound 107, (2R)-2-amino-3-hydroxy-N-[(3R,5S)-5-methyl-1-[pyrido[2,3-b]pyrazin-8-yl]piperidin-3-yl]propanamide] |
| < 1 µM | C[C@H]1C[C@@H](NC(=O)CN2CCOCC2)CN(c2ccc(C#N)c3nccnc23)C1 [Compound 108, N-[(3R,5S)-1-(8-cyanoquinoxalin-5-yl)-5-methylpiperidin-3-yl]-2-(morpholin-4-yl)acetamide] |
| > 10 µM | C[C@H]1C[C@@H](NC(=O)CN2CCOCC2)CN(c2ccnc3nccnc23)C1 [Compound 110, N-[(3R,5S)-5-methyl-1-[pyrido[2,3-b]pyrazin-8-yl]piperidin-3-yl]-2-(morpholin-4-yl)acetamide] |
| < 1 µM | C[C@H]1C[C@@H](NC(=O)[C@@H](N)Cc2cccnc2)CN(c2ccc(C#N)c3nccnc23)C1 [Compound 116, (2S)-2-amino-N-[(3R,5S)-1-(8-cyanoquinoxalin-5-yl)-5-methylpiperidin-3-yl]-3-(pyridin-3-yl)propanamide] |
| < 1 µM | C[C@H]1C[C@@H](NC(=O)[C@H](N)c2ccccc2)CN(c2ccc(C#N)c3nccnc23)C1 [Compound 119, (2R)-2-amino-N-[(3R,5S)-1-(8-cyanoquinoxalin-5-yl)-5-methylpiperidin-3-yl]-2-phenylacetamide] |
